Results from publication PMC7150935 (Toxins, 2020).
“Also recorded” adds a separate entry of the source. Like-named read-outs stand apart in the source and are kept apart here. Bridge positions count the residues as written; N and C are the ends. Square brackets hold non-standard residues; d marks the D form. Peptide text beside a SMILES is read from it. pGlu = O=C1CC[C@@H](C(=O)O)N1

Legend:
[1] = test system: zebrafish αβδ nAChR; assay type: cell-based, zebrafish (Danio rerio)
[2] = test system: zebrafish αβδ nAChR; assay type: cell-based, zebrafish (Danio rerio); remark: listed apart in the source

**Q.** Which results are given for `CC[C@H](C)[C@@H]1NC(=O)[C@H](CC(C)C)NC(=O)[C@H](CCCNC(=N)N)NC(=O)[C@H](CC(=O)O)NC(=O)[C@H](CCCNC(=N)N)NC(=O)[C@H](Cc2ccccc2)NC(=O)[C@H](Cc2ccc(O)cc2)NC(=O)[C@H](CC(C)C)NC(=O)[C@@H]2CCCN2C(=O)[C@@H]2CSSC[C@@H](C(=O)O)NC(=O)[C@@H]3CSSC[C@H](NC(=O)[C@H](CCCCN)NC(=O)[C@@H]4CCC(=O)N4)C(=O)N[C@@H](CSSC[C@H](NC1=O)C(=O)N1CCC[C@H]1C(=O)N3)C(=O)N[C@@H](CO)C(=O)NCC(=O)NCC(=O)N[C@@H](CO)C(=O)N2` [αM-MIIIJ] ([pGlu]KCCSGGSCPLYFRDRLICPCC-OH; disulfide 3-21, 4-19, 9-22)?
**A.** affinity of αβδ relative to αβδε and αβδγ [1]: about a factor of two higher; koff [1]: 0.0417 s⁻¹; recovery of IACh on washout [1]: recovered almost completely within a minute; reversibility of block [1]: readily reversible; IC50 ([1]; read-out: IC50): 33 nM; IC50 ([1]; read-out: IC50 (range statement)): ~50 nM; protection against α-BgTX block [2]: largely protected; protection against α-EI block [2]: rapidly reversed upon toxin washout; also recorded: completely protected
